Measured values from ChEMBL document CHEMBL4138241, “Synthesis and in vitro evaluation of novel substituted isatin-propylene-1H-1,2,3-triazole-4-methylene-moxifloxacin hybrids for their anti-mycobacterial activities” (Eur J Med Chem, 2018).
Values after ≈ are worked out from the molar mass of the structure shown.

Experiments:
[1] = Selectivity index, ratio of CC50 against African green monkey Vero cells to MIC for Mycobacterium tuberculosis H37Rv; type: toxicity; conditions: read-out: Selectivity Index
[2] = test system: Mycobacterium tuberculosis; assay: Antimycobacterial activity against Mycobacterium tuberculosis H37Rv after 3 days by rapid direct susceptibility test; type: functional; conditions: 72 h
[3] = Cytotoxicity against African green monkey Vero cells assessed as reduction in cell viability after 72 hrs by MTT assay; type: cell-based; conditions: chlorocebus sabaeus
[4] = Half life in mouse microsomes; type: ADME, Microsome
[5] = Tmax in ICR mouse at 50 mg/kg, po by HPLC analysis; type: ADME, organism-based; conditions: in vivo
[6] = Elimination half life in ICR mouse at 50 mg/kg, po by HPLC analysis; type: ADME, organism-based; conditions: in vivo, read-out: beta t1/2 (converted)
[7] = Cmax in ICR mouse at 50 mg/kg, po by HPLC analysis; type: ADME, organism-based; set-up: dose 50 mg/kg, route oral; conditions: in vivo
[8] = AUC (0 to infinity) in ICR mouse at 50 mg/kg, po by HPLC analysis; type: ADME, organism-based; set-up: dose 50 mg/kg, time infinity, route oral; conditions: in vivo
[9] = test system: Mycobacterium tuberculosis; assay: Potency index, ratio of rifampicin MIC to compound MIC for antimycobacterial activity against Mycobacterium tuberculosis H37Rv; type: functional
[10] = test system: Mycobacterium tuberculosis; assay: Potency index, ratio of moxifloxacin MIC to compound MIC for antimycobacterial activity against Mycobacterium tuberculosis H37Rv; type: functional

| Compound | selectivity ratio [1] | MIC [2] [µg/mL] | CC50 at 72 h [3] [µg/mL] | half-life [4] [h] | Tmax [5] [h] | half-life [6] [h] | Cmax [7] [ng/mL] | AUC(0-inf) [8] [ng·h/mL] | Ratio [9] | Ratio [10] |
| --- | --- | --- | --- | --- | --- | --- | --- | --- | --- | --- |
| COc1c(N2C[C@H]3CCCN(Cc4cn(CCCN5C(=O)/C(=N/O)c6cc(C)ccc65)nn4)[C@H]3C2)c(F)cc2c(=O)c(C(=O)O)cn(C3CC3)c12 | 5.1 | 1.56 (≈ 2.23 µM) | 8 (≈ 11.4 µM) |  |  |  |  |  |  |  |
| COc1c(N2C[C@H]3CCCN(Cc4cn(CCCN5C(=O)C(=O)c6cc(C)ccc65)nn4)[C@H]3C2)c(F)cc2c(=O)c(C(=O)O)cn(C3CC3)c12 | 82 | 0.39 (≈ 0.57 µM) | 32 (≈ 46.8 µM) |  |  |  |  |  |  |  |
| CO/N=C1/C(=O)N(CCCn2cc(CN3CCC[C@@H]4CN(c5c(F)cc6c(=O)c(C(=O)O)cn(C7CC7)c6c5OC)C[C@@H]43)nn2)c2ccccc21 | 160 | 0.1 (≈ 0.143 µM) | 16 (≈ 22.9 µM) |  |  |  |  |  |  |  |
| CCO/N=C1/C(=O)N(CCCn2cc(CN3CCC[C@@H]4CN(c5c(F)cc6c(=O)c(C(=O)O)cn(C7CC7)c6c5OC)C[C@@H]43)nn2)c2ccccc21 | 41 | 0.39 (≈ 0.547 µM) | 16 (≈ 22.4 µM) |  |  |  |  |  |  |  |
| COc1c(N2C[C@H]3CCCN(Cc4cn(CCCN5C(=O)C(=O)c6ccccc65)nn4)[C@H]3C2)c(F)cc2c(=O)c(C(=O)O)cn(C3CC3)c12 | 10.2 | 1.56 (≈ 2.33 µM) | 16 (≈ 23.9 µM) |  |  |  |  |  |  |  |
| CO/N=C1/C(=O)N(CCCn2cc(CN3CCC[C@@H]4CN(c5c(F)cc6c(=O)c(C(=O)O)cn(C7CC7)c6c5OC)C[C@@H]43)nn2)c2ccc(F)cc21 | 80 | 0.05 (≈ 0.0698 µM) | 4 (≈ 5.58 µM) | 0.228 | 1.33 | 3.87 | 243 | 1240 | 2 - 8 | 2 - 8 |
| CCO/N=C1/C(=O)N(CCCn2cc(CN3CCC[C@@H]4CN(c5c(F)cc6c(=O)c(C(=O)O)cn(C7CC7)c6c5OC)C[C@@H]43)nn2)c2ccc(F)cc21 | 20 | 0.2 (≈ 0.274 µM) | 4 (≈ 5.47 µM) |  |  |  |  |  |  |  |
| COc1c(N2C[C@H]3CCCN(Cc4cn(CCCN5C(=O)C(=O)c6cc(F)ccc65)nn4)[C@H]3C2)c(F)cc2c(=O)c(C(=O)O)cn(C3CC3)c12 | 20.5 | 0.78 (≈ 1.13 µM) | 16 (≈ 23.3 µM) |  |  |  |  |  |  |  |
| COc1c(N2C[C@H]3CCCN(Cc4cn(CCCN5C(=O)/C(=N/O)c6ccccc65)nn4)[C@H]3C2)c(F)cc2c(=O)c(C(=O)O)cn(C3CC3)c12 | 10.2 | 0.78 (≈ 1.14 µM) | 8 (≈ 11.7 µM) |  |  |  |  |  |  |  |
| COc1c(N2C[C@H]3CCCN(Cc4cn(CCCN5C(=O)/C(=N/O)c6cc(F)ccc65)nn4)[C@H]3C2)c(F)cc2c(=O)c(C(=O)O)cn(C3CC3)c12 | 2.6 | 0.78 (≈ 1.11 µM) | 2 (≈ 2.85 µM) |  |  |  |  |  |  |  |
| CO/N=C1/C(=O)N(CCCn2cc(CN3CCC[C@@H]4CN(c5c(F)cc6c(=O)c(C(=O)O)cn(C7CC7)c6c5OC)C[C@@H]43)nn2)c2ccc(C)cc21 | 20.5 | 0.39 (≈ 0.547 µM) | 8 (≈ 11.2 µM) |  |  |  |  |  |  |  |
| CCO/N=C1/C(=O)N(CCCn2cc(CN3CCC[C@@H]4CN(c5c(F)cc6c(=O)c(C(=O)O)cn(C7CC7)c6c5OC)C[C@@H]43)nn2)c2ccc(C)cc21 | 10.2 | 0.39 (≈ 0.537 µM) | 4 (≈ 5.5 µM) |  |  |  |  |  |  |  |
| NNC(=O)c1ccncc1 [ISONIAZID] | 2560 | 0.05 (≈ 0.365 µM) | 128 (≈ 933 µM) |  |  |  |  |  |  |  |
| COc1c(N2C[C@@H]3CCCN[C@@H]3C2)c(F)cc2c(=O)c(C(=O)O)cn(C3CC3)c12 [MOXIFLOXACIN] |  | 0.1 (≈ 0.249 µM) | 128 (≈ 319 µM) |  | 1.08 |  | 2730 | 7030 |  |  |
| CO[C@H]1/C=C/O[C@@]2(C)Oc3c(C)c(O)c4c(O)c(c(/C=N/N5CCN(C)CC5)c(O)c4c3C2=O)NC(=O)/C(C)=C\C=C\[C@H](C)[C@H](O)[C@@H](C)[C@@H](O)[C@@H](C)[C@H](OC(C)=O)[C@@H]1C [RIFAMPIN] | 1310 | 0.39 (≈ 0.474 µM) | 512 (≈ 622 µM) |  |  |  |  |  |  |  |
